Assay results from patent US5641520A, “Halogen compositions for water treatment” (priority 1995, dated 1997).

Assay: Water solubility of solid halogenated hydantoins and halogen dissolved in a saturated solution
Assay type: physicochemical
Settings: Table II; for Saturated Solution, amount of halogen dissolved: saturated solution in water

| Structure (SMILES) | Saturated Solution, amount of halogen dissolved [mg/L as Cl2] | Solubility (water) [%] |
| --- | --- | --- |
| CC1(C)C(=O)N(Cl)C(=O)N1Br [Bromo-chlorodimethylhydantoin, bromochlorodimethylhydantoin] | 825 | 0.15 |
| CC1(C)C(=O)N(Br)C(=O)N1Br [Dibromodimethylhydantion, 1,3-dibromo-5,5-dimethylhydantoin] | 542 | – |
